Key:
Carbonic anhydrase 9 = Carbonic anhydrase 9 (Homo sapiens, UniProt Q16790)
Description: Inhibitory constant against human Carbonic anhydrase IX

Carbonic anhydrase 1 = Carbonic anhydrase 1 (Homo sapiens, UniProt P00915)
Description: Inhibitory constant against human Carbonic anhydrase I

Carbonic anhydrase 2 = Carbonic anhydrase 2 (Homo sapiens, UniProt P00918)
Description: Inhibitory constant against human Carbonic anhydrase II

[1] = biological target: Carbonic anhydrases; II & IX (Homo sapiens, UniProt P00918+Q16790)
Description: Ratio against Carbonic anhydrase II to Carbonic anhydrase IX

Chain of Carbonic anhydrase 1 (P00915 whole entry): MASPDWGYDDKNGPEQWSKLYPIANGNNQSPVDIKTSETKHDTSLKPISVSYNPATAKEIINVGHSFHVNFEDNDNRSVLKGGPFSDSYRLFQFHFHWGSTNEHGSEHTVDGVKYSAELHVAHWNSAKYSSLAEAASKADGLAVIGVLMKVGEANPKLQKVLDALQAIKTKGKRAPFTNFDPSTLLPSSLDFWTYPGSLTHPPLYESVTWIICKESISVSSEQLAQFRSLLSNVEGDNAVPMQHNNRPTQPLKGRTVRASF

Structure (SMILES) | Ki (Carbonic anhydrase 9) | Ki (Carbonic anhydrase 1) | Ki (Carbonic anhydrase 2) | Ki [1]
CN(C)CC/N=C(\S)Nc1ccc(S(=O)(=O)NCc2ccc(S(N)(=O)=O)cc2)cc1 | 5.4 nM | 210 nM | 12 nM | 2.22 Ratio
NS(=O)(=O)c1ccc(NS(=O)(=O)c2ccc(N/C(S)=N/N3CCOCC3)cc2)cc1 | – | 233 nM | 290 nM | –
CN1CCN(CC/N=C(\S)Nc2ccc(S(=O)(=O)NCc3ccc(S(N)(=O)=O)cc3)cc2)CC1 | 5 nM | 246 nM | 10.3 nM | 2.06 Ratio
CN1CCN(CC/N=C(\S)Nc2ccc(S(=O)(=O)Nc3ccc(S(N)(=O)=O)cc3)cc2)CC1 | 4.8 nM | 175 nM | 7.2 nM | 1.5 Ratio
NS(=O)(=O)c1ccc(CNS(=O)(=O)c2ccc(N/C(S)=N/CCN3CCOCC3)cc2)cc1 | 4.8 nM | 3.1 nM | 220 nM | 45.83 Ratio
NS(=O)(=O)c1ccc(CNS(=O)(=O)c2ccc(NC(=S)NN3CCOCC3)cc2)cc1 | – | 268 nM | 278 nM | –
NS(=O)(=O)c1ccc(CC/N=C(\S)Nc2ccc(S(=O)(=O)NCc3ccc(S(N)(=O)=O)cc3)cc2)cc1 | 4.6 nM | 3.7 nM | 46 nM | 10 Ratio
CN(C)CC/N=C(\S)Nc1ccc(S(=O)(=O)NCCc2ccc(S(N)(=O)=O)cc2)cc1 | 6.1 nM | 308 nM | 10.1 nM | 1.65 Ratio
NS(=O)(=O)c1ccc(CNS(=O)(=O)c2ccc(NC(=S)NCc3ccccn3)cc2)cc1 | – | 355 nM | 290 nM | –
NS(=O)(=O)c1ccc(NS(=O)(=O)c2ccc(N/C(S)=N/CCN3CCOCC3)cc2)cc1 | 5.6 nM | 9.5 nM | 180 nM | 32.14 Ratio
CN(C)CC/N=C(\S)Nc1ccc(S(=O)(=O)Nc2ccc(S(N)(=O)=O)cc2)cc1 | 6.7 nM | 105 nM | 8.1 nM | 1.2 Ratio
NS(=O)(=O)c1ccc(CNS(=O)(=O)c2ccc(NC(=S)NCCc3ccccc3)cc2)cc1 | – | 8.6 nM | 640 nM | –

— ChEMBL document CHEMBL1144388, “Carbonic anhydrase inhibitors: synthesis and inhibition of cytosolic/tumor-associated carbonic anhydrase isozymes I, II, and IX with sulfonamides incorporating thioureido-sulfanilyl scaffolds” (Bioorg Med Chem Lett, 2005)
